Laboratory results as given in ChEMBL document CHEMBL5032530, “Discovery of Benzocyclic Sulfone Derivatives as Potent CXCR2 Antagonists for Cancer Immunotherapy” (J Med Chem, 2021).
Calls of active or inactive are those of the source. No cut-off for these calls is given here.

Assays:
[1] = target: T1, C-X-C chemokine receptor type 2 (Homo sapiens, UniProt P25025); assay: Antagonist activity at human CXCR2 expressed in HEK293 cells assessed as inhibition of CXCL8-induced beta-arrestin recruitment preincubated for 30 mins followed by addition of agonist incubated for 90 mins by beta arrestin assay; assay type: functional, cell-based
T1 sequence (P25025 whole entry): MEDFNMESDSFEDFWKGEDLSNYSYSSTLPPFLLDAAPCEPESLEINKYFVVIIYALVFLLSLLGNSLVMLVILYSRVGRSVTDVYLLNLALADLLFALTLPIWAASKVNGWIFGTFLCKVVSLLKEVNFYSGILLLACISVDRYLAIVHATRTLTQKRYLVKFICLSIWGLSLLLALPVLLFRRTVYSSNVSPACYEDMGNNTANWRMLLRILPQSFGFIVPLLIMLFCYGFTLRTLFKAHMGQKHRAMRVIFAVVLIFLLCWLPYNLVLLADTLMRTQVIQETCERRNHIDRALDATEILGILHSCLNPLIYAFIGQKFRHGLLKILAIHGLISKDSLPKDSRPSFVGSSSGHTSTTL

[2] = Cmax in ICR mouse at 3 mg/kg, iv measured upto 48 hrs; assay type: ADME, organism-based; design: route intravenous, dose 3 mg/kg, time <=48; details: in vivo
[3] = AUC (0 to t) in ICR mouse at 3 mg/kg, iv measured upto 48 hrs; assay type: ADME, organism-based; design: route intravenous, dose 3 mg/kg, time <=48; details: in vivo
[4] = AUC (0 to infinity) in ICR mouse at 3 mg/kg, iv measured upto 48 hrs; assay type: ADME, organism-based; design: route intravenous, dose 3 mg/kg, time <=48; details: in vivo
[5] = Tmax in ICR mouse at 3 mg/kg, iv measured upto 48 hrs; assay type: ADME, organism-based; details: in vivo
[6] = Clearance in ICR mouse at 3 mg/kg, iv measured upto 48 hrs; assay type: ADME, organism-based; details: in vivo
[7] = Cmax in ICR mouse at 30 mg/kg, po measured upto 48 hrs; assay type: ADME, organism-based; design: route oral, dose 30 mg/kg, time <=48; details: in vivo
[8] = AUC (0 to t) in ICR mouse at 30 mg/kg, po measured upto 48 hrs; assay type: ADME, organism-based; design: route oral, dose 30 mg/kg, time <=48; details: in vivo
[9] = Half life in ICR mouse at 3 mg/kg, iv measured upto 48 hrs; assay type: ADME, organism-based; details: in vivo
[10] = Half life in ICR mouse at 30 mg/kg, po measured upto 48 hrs; assay type: ADME, organism-based; details: in vivo, 30 mg/kg, 48 h
[11] = AUC (0 to infinity) in ICR mouse at 30 mg/kg, po measured upto 48 hrs; assay type: ADME, organism-based; design: route oral, dose 30 mg/kg, time <=48; details: in vivo, 48 h
[12] = Clearance in ICR mouse at 30 mg/kg, po measured upto 48 hrs; assay type: ADME, organism-based; details: in vivo, 30 mg/kg, 48 h
[13] = Apparent volume of distribution in ICR mouse at 30 mg/kg, po measured upto 48 hrs; assay type: ADME, organism-based; details: in vivo
Neutrophil = assay: In vivo antagonist activity at CXCR2 in carrageenan-induced C57BL/6 mouse air pouch inflammation model assessed as reduction in neutrophil infiltration into air pouch at 10 mg/kg, po bid administered after 3 days of carrageenan treatment for 3 days; assay type: functional, organism-based; details: time 3.0 day
[14] = Oral bioavailability in ICR mouse at 30 mg/kg measured upto 48 hrs; assay type: ADME, organism-based; details: in vivo
[15] = Tmax in ICR mouse at 30 mg/kg, po measured upto 48 hrs; assay type: ADME, organism-based; details: in vivo
[16] = Apparent volume of distribution in ICR mouse at 3 mg/kg, iv measured upto 48 hrs; assay type: ADME, organism-based; details: in vivo, read-out: Vz

In the case of `Cc1c(F)cccc1NC(=O)Nc1ccc2c(c1O)S(=O)(=O)CCC2=O`, the IC50 [1] is reported as 0.42 µM.

For `O=c1c(Nc2ccc3c(c2O)S(=O)(=O)CC=C3)c(Nc2cccc(F)c2Cl)c1=O`, the IC50 [1] was 0.7 µM.

With `O=C(Nc1ccc(Cl)cc1Cl)Nc1ccc2c(c1O)S(=O)(=O)CCC2` the IC50 [1] was greater than 10 µM.

`NS(=O)(=O)c1c(Cl)ccc(NC(=O)Nc2cccc(Cl)c2Cl)c1O` gave an IC50 [1] of 0.013 µM, a Cmax [2] of 8350 ng/mL and an AUC(0-t) at 48 h [3] of 3160 ng·h/mL. The AUC(0-inf) [4] was 3160 ng·h/mL, the Tmax [5] was 3.6 min and the clearance [6] was 16.3 mL/min/kg. It also gave a Cmax [7] of 3810 ng/mL, an AUC(0-t) at 48 h [8] of 11100 ng·h/mL and a half-life [9] of 216 min. The t1/2 [10] was 215 min, the AUC [11] was 11072.08 ng·h/mL and the CL [12] was 453.5 mL/min/kg. The Vz [13] was 14.09 L/kg, the Activity (Neutrophil) was “Active” and the bioavailability [14] was 35%. The Tmax [15] was 18 min and the Vd [16] was 5.07 L/kg.

Compound `O=C(Nc1ccccc1C(F)(F)F)Nc1ccc2c(c1O)S(=O)(=O)CCC2` has an IC50 [1] of 4.51 µM.

Work on `Cc1c(Cl)cccc1NC(=O)Nc1ccc2c(c1O)S(=O)(=O)CC=C2` yielded an IC50 [1] of 1.64 µM.

For `Cc1ccc(NC(=O)Nc2ccc3c(c2O)S(=O)(=O)CCC3)cc1`, the IC50 [1] was 1.32 µM.

Compound `O=C(Nc1ccc(Br)cc1)Nc1ccc2c(c1O)S(=O)(=O)CCC2` has an IC50 [1] greater than 10 µM.

Compound `O=c1c(Nc2ccccc2Br)c(Nc2ccc3c(c2O)S(=O)(=O)CCC3)c1=O` has an IC50 [1] of 0.15 µM.
